According to US20100267561A1, “HERBICIDAL PYRIDAZINONE DERIVATIVES” (priority 2007, published 2010):
Read-outs that look alike come from different tables or passages of the source.

Tests used:
Format in all cases: in vivo
[1] = tested on: giant foxtail (Setaria faberi); experiment: Test A pre-/postemergence plant response; conditions: Setaria faberi, 240 h, read-out: Plant response rating, Foxtail, Giant; for pest or weed control at 31 g/ha: 31 g ai/ha; for pest or weed control at 125 g/ha: 125 g ai/ha
How it was run: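 Seeds in loam soil/sand blend treated preemergence by directed soil spray, with simultaneous postemergence spray on 2–10 cm plants at one- to two-leaf stage; compounds in non-phytotoxic solvent with surfactant. Injury visually rated versus untreated controls after about 10 days in greenhouse, 0 (no effect) to 100 (complete control).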

[2] = tested on: blackgrass (Alopecurus myosuroides); experiment: Test B pre-/postemergence plant response; conditions: for pest or weed control at 31 g/ha: 31 g ai/ha; for pest or weed control at 62 g/ha: 62 g ai/ha, 100 complete control
How it was run: (§1)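 Preemergence and postemergence (plants 2-18 cm, 1- to 4-leaf stage) applications used test chemicals in a non-phytotoxic solvent with surfactant. Plants were held in a greenhouse 13 to 15 days, then rated visually against controls on a 0-100 scale (0 no effect, 100 complete control).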

soybean (Glycine max) = experiment: Test B pre-/postemergence plant response; conditions: for plant injury at 31 g/ha / plant injury at 62 g/ha: Glycine max, read-out: Plant response rating, Soybean; for plant injury at 31 g/ha: 31 g ai/ha; for plant injury at 62 g/ha: 62 g ai/ha, 100 complete control
How it was run: as §1

[3] = tested on: bermudagrass (Cynodon dactylon); experiment: Test B pre-/postemergence plant response; conditions: for pest or weed control at 31 g/ha: 31 g ai/ha; for pest or weed control at 62 g/ha: 62 g ai/ha, 100 complete control
How it was run: as §1

[4] = tested on: downy bromegrass (Bromus tectorum); experiment: Test B pre-/postemergence plant response; conditions: for pest or weed control at 31 g/ha: 31 g ai/ha; for pest or weed control at 62 g/ha: 62 g ai/ha, 100 complete control
How it was run: as §1

[5] = tested on: velvetleaf (Abutilon theophrasti); experiment: Test B pre-/postemergence plant response; conditions: for pest or weed control at 31 g/ha / pest or weed control at 62 g/ha: Abutilon theophrasti, read-out: Plant response rating, Velvetleaf; for pest or weed control at 31 g/ha: 31 g ai/ha; for pest or weed control at 62 g/ha: 62 g ai/ha, 100 complete control
How it was run: as §1

[6] = tested on: wheat (Triticum aestivum); experiment: Test B pre-/postemergence plant response; conditions: for plant injury at 31 g/ha / plant injury at 62 g/ha: Triticum aestivum, read-out: Plant response rating, Wheat; for plant injury at 31 g/ha: 31 g ai/ha; for plant injury at 62 g/ha: 62 g ai/ha, 100 complete control
How it was run: as §1

[7] = tested on: giant foxtail (Setaria faberii); experiment: Test B pre-/postemergence plant response; conditions: for pest or weed control at 31 g/ha: 31 g ai/ha; for pest or weed control at 62 g/ha: 62 g ai/ha, 100 complete control
How it was run: as §1

[8] = tested on: johnsongrass (Sorghum halepense); experiment: Test B pre-/postemergence plant response; conditions: for pest or weed control at 31 g/ha / pest or weed control at 62 g/ha: Sorghum halepense, read-out: Plant response rating, Johnsongrass; for pest or weed control at 31 g/ha: 31 g ai/ha; for pest or weed control at 62 g/ha: 62 g ai/ha, 100 complete control
How it was run: as §1

[9] = tested on: pigweed (Amaranthus retroflexus); experiment: Test B pre-/postemergence plant response; conditions: for pest or weed control at 31 g/ha / pest or weed control at 62 g/ha: Amaranthus retroflexus, read-out: Plant response rating, Pigweed; for pest or weed control at 31 g/ha: 31 g ai/ha; for pest or weed control at 62 g/ha: 62 g ai/ha, 100 complete control
How it was run: as §1

[10] = tested on: common (oilseed) sunflower (Helianthus annuus); experiment: Test B pre-/postemergence plant response; conditions: Preemergence; for Sunflower plant response rating: scale 0 to 100
How it was run: as §1

[11] = tested on: goosegrass (Eleusine indica); experiment: Test B pre-/postemergence plant response; conditions: for pest or weed control at 31 g/ha / pest or weed control at 62 g/ha: Eleusine indica, read-out: Plant response rating, Goosegrass; for pest or weed control at 31 g/ha: 31 g ai/ha; for pest or weed control at 62 g/ha: 62 g ai/ha, 100 complete control
How it was run: as §1

[12] = 8 g ai/ha, postemergence, 0-100 scale
[13] = Preemergence, 8 g ai/ha, scale 0 to 100
[14] = Preemergence, 16 g ai/ha, scale 0 to 100
[15] = 16 g ai/ha, postemergence, 0-100 scale
[16] = post-emergence, Postemergence, scale 0 to 100
[17] = post-emergence, Postemergence, scale 0 to 100, 0 no effect
[18] = pre-emergence, Preemergence, scale 0 to 100 (0 no effect, 100 complete control)
[19] = pre-emergence, Preemergence, 0 to 100 scale, 0 no effect

Cc1nn(C)c(=O)c(-n2nc(-c3ccc(C(F)(F)F)cc3)cc2C)c1O [Compound 75, 5-hydroxy-2,6-dimethyl-4-[5-methyl-3-[4-(trifluoromethyl)phenyl]-1H-pyrazol-1-yl]-3(2H)-pyridazinone]
pest or weed control at 31 g/ha ([1]; post-emergence, Postemergence, 0 to 100 scale (0 no effect, 100 complete control)): 50% | pest or weed control at 125 g/ha ([1]; post-emergence, Postemergence, 0 to 100 scale, 0 no effect, 100 complete control): 80% | pest or weed control at 31 g/ha ([1]; pre-emergence, Preemergence, 0 to 100 scale, 0 is no effect, 100 is complete control): 20% | pest or weed control at 125 g/ha ([1]; pre-emergence, Preemergence, 0 to 100 scale (0 no effect, 100 complete control)): 80% | Blackgrass plant response rating [2, 12]: 10 | pest or weed control at 16 g/ha ([2]; Alopecurus myosuroides, post-emergence, Postemergence, 16 g ai/ha, scale 0 to 100, read-out: Plant response rating, Blackgrass): 50% | pest or weed control at 31 g/ha ([2]; Alopecurus myosuroides, post-emergence, Postemergence, scale 0 to 100, read-out: Plant response rating, Blackgrass): 65% | pest or weed control at 62 g/ha ([2]; Alopecurus myosuroides, post-emergence, Postemergence, scale 0 to 100, 0 no effect, read-out: Plant response rating, Blackgrass): 95% | pest or weed control at 31 g/ha ([2]; Alopecurus myosuroides, pre-emergence, Preemergence, scale 0 to 100 (0 no effect, 100 complete control), read-out: Plant response rating, Blackgrass): 60% | pest or weed control at 62 g/ha ([2]; Alopecurus myosuroides, pre-emergence, Preemergence, 0 to 100 scale, 0 no effect, read-out: Plant response rating, Blackgrass): 90% | Blackgrass plant response rating [2, 13]: 0 | Blackgrass plant response rating [2, 14]: 20 | Soybean plant response rating (soybean (Glycine max); [12]): 0 | Soybean plant response rating (soybean (Glycine max); [15]): 0 | plant injury at 31 g/ha (soybean (Glycine max); [16]): 0% | plant injury at 62 g/ha (soybean (Glycine max); [17]): 0% | plant injury at 31 g/ha (soybean (Glycine max); [18]): 0% | plant injury at 62 g/ha (soybean (Glycine max); [19]): 0% | Soybean plant response rating (soybean (Glycine max); [13]): 0 | Soybean plant response rating (soybean (Glycine max); [14]): 0 | Bermudagrass plant response rating [3, 12]: 65 | pest or weed control at 16 g/ha ([3]; Cynodon dactylon, post-emergence, Postemergence, 16 g ai/ha, scale 0 to 100, read-out: Plant response rating, Bermudagrass): 80% | pest or weed control at 31 g/ha ([3]; Cynodon dactylon, post-emergence, Postemergence, scale 0 to 100, read-out: Plant response rating, Bermudagrass): 85% | pest or weed control at 62 g/ha ([3]; Cynodon dactylon, post-emergence, Postemergence, scale 0 to 100, 0 no effect, read-out: Plant response rating, Bermudagrass): 90% | pest or weed control at 31 g/ha ([3]; Cynodon dactylon, pre-emergence, Preemergence, scale 0 to 100 (0 no effect, 100 complete control), read-out: Plant response rating, Bermudagrass): 65% | pest or weed control at 62 g/ha ([3]; Cynodon dactylon, pre-emergence, Preemergence, 0 to 100 scale, 0 no effect, read-out: Plant response rating, Bermudagrass): 98% | Bermudagrass plant response rating ([3]; Preemergence, 16 g ai/ha, scale 0 to 100 (0 no effect, 100 complete control)): 0 | Bromegrass, Downy plant response rating [4, 12]: 0 | pest or weed control at 16 g/ha ([4]; Bromus tectorum, post-emergence, Postemergence, 16 g ai/ha, scale 0 to 100, read-out: Plant response rating, Bromegrass, Downy): 10% | pest or weed control at 31 g/ha ([4]; Bromus tectorum, post-emergence, Postemergence, scale 0 to 100, read-out: Plant response rating, Bromegrass, Downy): 30% | pest or weed control at 62 g/ha ([4]; Bromus tectorum, post-emergence, Postemergence, scale 0 to 100, 0 no effect, read-out: Plant response rating, Bromegrass, Downy): 50% | pest or weed control at 31 g/ha ([4]; Bromus tectorum, pre-emergence, Preemergence, scale 0 to 100 (0 no effect, 100 complete control), read-out: Plant response rating, Bromegrass, Downy): 50% | pest or weed control at 62 g/ha ([4]; Bromus tectorum, pre-emergence, Preemergence, 0 to 100 scale, 0 no effect, read-out: Plant response rating, Bromegrass, Downy): 80% | Bromegrass, Downy plant response rating [4, 13]: 0 | Bromegrass, Downy plant response rating [4, 14]: 20 | Velvetleaf plant response rating [5, 12]: 0 | Velvetleaf plant response rating [5, 15]: 0 | pest or weed control at 31 g/ha [5, 16]: 0% | pest or weed control at 62 g/ha [5, 17]: 0% | pest or weed control at 31 g/ha [5, 18]: 0% | pest or weed control at 62 g/ha [5, 19]: 0% | Velvetleaf plant response rating [5, 13]: 0 | Velvetleaf plant response rating [5, 14]: 0 | Wheat plant response rating [6, 12]: 0 | Wheat plant response rating [6, 15]: 20 | Wheat plant response rating [6, 14]: 0 | plant injury at 31 g/ha [6, 16]: 70% | plant injury at 62 g/ha [6, 17]: 85% | plant injury at 31 g/ha [6, 18]: 20% | plant injury at 62 g/ha [6, 19]: 45% | Foxtail, Giant plant response rating [7, 12]: 50 | Foxtail, Giant plant response rating [7, 13]: 0 | Foxtail, Giant plant response rating [7, 14]: 0 | pest or weed control at 16 g/ha ([7]; Setaria faberi, post-emergence, Postemergence, 16 g ai/ha, scale 0 to 100, read-out: Plant response rating, Foxtail, Giant): 70% | pest or weed control at 31 g/ha ([7]; Setaria faberi, post-emergence, Postemergence, scale 0 to 100, read-out: Plant response rating, Foxtail, Giant): 80% | pest or weed control at 62 g/ha ([7]; Setaria faberi, post-emergence, Postemergence, scale 0 to 100, 0 no effect, read-out: Plant response rating, Foxtail, Giant): 85% | pest or weed control at 31 g/ha ([7]; Setaria faberi, pre-emergence, Preemergence, scale 0 to 100 (0 no effect, 100 complete control), read-out: Plant response rating, Foxtail, Giant): 50% | pest or weed control at 62 g/ha ([7]; Setaria faberi, pre-emergence, Preemergence, 0 to 100 scale, 0 no effect, read-out: Plant response rating, Foxtail, Giant): 95% | Johnsongrass plant response rating [8, 12]: 75 | Johnsongrass plant response rating [8, 15]: 80 | Johnsongrass plant response rating [8, 13]: 0 | Johnsongrass plant response rating [8, 14]: 75 | pest or weed control at 31 g/ha [8, 16]: 98% | pest or weed control at 62 g/ha [8, 17]: 100% | pest or weed control at 31 g/ha [8, 18]: 85% | pest or weed control at 62 g/ha [8, 19]: 95% | Pigweed plant response rating [9, 12]: 0 | Pigweed plant response rating [9, 15]: 0 | pest or weed control at 31 g/ha [9, 16]: 0% | pest or weed control at 62 g/ha [9, 17]: 0% | pest or weed control at 31 g/ha [9, 18]: 0% | pest or weed control at 62 g/ha [9, 19]: 0% | Pigweed plant response rating [9, 13]: 0 | Pigweed plant response rating [9, 14]: 0 | pest or weed control at 31 g/ha ([10]; Helianthus annuus, pre-emergence, 31 g ai/ha, scale 0 to 100 (0 no effect, 100 complete control), read-out: Plant response rating, Sunflower): 0% | pest or weed control at 62 g/ha ([10]; Helianthus annuus, pre-emergence, 62 g ai/ha, 0 to 100 scale, 0 no effect, 100 complete control, read-out: Plant response rating, Sunflower): 0% | Sunflower plant response rating ([10]; 8 g ai/ha): 0 | Sunflower plant response rating ([10]; 16 g ai/ha): 0 | Goosegrass plant response rating [11, 12]: 30 | Goosegrass plant response rating [11, 15]: 50 | pest or weed control at 31 g/ha [11, 16]: 60% | pest or weed control at 62 g/ha [11, 17]: 75% | pest or weed control at 31 g/ha [11, 18]: 90% | pest or weed control at 62 g/ha [11, 19]: 98% | Goosegrass plant response rating [11, 13]: 50 | Goosegrass plant response rating [11, 14]: 65
